Calls of active or inactive are those of the source.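 The calls were made as follows: active = tubulin-normalized E-cadherin at least double the DMSO level by western blot, or significantly raised by in-cell western; inactive = the rest.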

The term EC50 denotes the concentration at which the effect is half-maximal.

The subject of this assay is SW620/H520 cells, E-cadherin In-Cell Western. Nature of the assay: E-cadherin expression restoration, SW620 and H520 cells, In-Cell Western (AID 651862).
Regarding `O=C(NCCCNC(=O)c1ccc[nH]c1=O)c1cc(-c2ccccc2)on1`, the EC50 is 2.22 µM. `[N-]=[N+]=Nc1nccc(NCCCNC(=O)c2cc(-c3ccccc3)on2)n1`: the EC50 is 2.55 µM. On to `N#Cc1ccc(NCCCNC(=O)c2cc(-c3ccccc3)on2)nc1`, for which the EC50 was 3.13 µM.

`O=C(NCCCNCc1ccc(O)c(O)c1)c1cc(-c2ccccc2)on1`: the EC50 was 4.56 µM. The same measure for `O=C(NCCCNCc1cnoc1)c1cc(-c2ccccc2)on1`: 12 µM (inactive). `O=C(NCCNC(=O)c1nccs1)c1cc(-c2ccccc2)on1`: the EC50 is 3.82 µM.
